For one experiment, the target named is TNKS1 (Homo sapiens, UniProt O95271). As to the kind of experiment: TNKS1/PARP Biochemical Assay (TNKS1).
In experiment [1] the test system is Wnt activity in DLD1-Wnt-Luc cells. As to the kind of experiment: Wnt-Luciferase Reporter Assay.
In another experiment the test system is DLD1 cells. Put plainly: Long-Term Clonogenic Assay (DLD1 cells). The experiment is classed as cell-based. As to the method: Clonogenic Inhibition in DLD1 or HT55 Cells
In order to determine the efficacy of chronic dosing of putative TNKS inhibitors, long term clonogenic or ‘colony formation’ assays were carried out. This included the sparse seeding of cells in a 6-well dish followed by continuous dosing of cells over 12-14 days (depending on relative cell growth). Appropriate cell lines (DLD1 or HT55) were seeded at 500 cells/well in a 6-well dish in DMEM supplemented with FBS. […] Dosages were carried out in triplicate. Cell media containing compound or DMSO only was replenished every 48 hours. Termination of the assay included the fixation of cells with trichlororacetic acid (1 mL, 10% (v/v), Sigma Aldrich, cat. no. T6399) and incubation for 16 hours at 4° C. Fixed cells were then washed with water, allowed to dry and stained with sulforhodamine B solution (sulforhodamine B 0.05% (w/v), Sigma Aldrich cat. no. S1402, acetic acid 1% (v/v), Fisher Scientific, cat. no. A/0400/PB17)) for 12 hours at room temperature. The stain was then removed and the cells washed copiously with aqueous acetic acid (1% v/v) and allowed to dry.
The data was normalised to the DMSO control and was expressed as surviving fraction as a function of inhibitor dose.

Where [2] appears, read: read-out: Wnt IC50, DLD1-Wnt-Luc cells.

pIC50: −log10 of the molar value. Like-named read-outs stand apart in the source and are kept apart here.

Consider `CN1CCN(c2ncc(-c3cc4ccccc4c(=O)[nH]3)cn2)CC1` [REF-1, reference compound], for which the pIC50 was 7.48 against TNKS1 and 6.08 in experiment [1] (read-out: Wnt IC50).
The like results for `Cc1cc(F)cc2c(=O)[nH]c(-c3ccc(CN4CCN(C)CC4)cc3)cc12` [IQ-080] were, in that order, 7.54 and 7.38.
Consider `COc1ccc(-c2cc3c(C)cccc3c(=O)[nH]2)nc1` [REF-8, reference compound], for which the negative logarithm of the IC50 (pIC50) against TNKS1 is 7.41; in experiment [1] (read-out: Wnt IC50) it was 5.36.
Regarding `Cc1cccc2c(=O)[nH]c(-c3ccc(C(=O)N(CCO)CCO)cc3)cc12` [IQ-191, N,N-Bis-(2-hydroxy-ethyl)-4-(5-methyl-1-oxo-1,2-dihydro-isoquinolin-3-yl)-benzamide], the pIC50 at TNKS1 is more than 7.70; in experiment [1] (setting [2]) it was more than 5.30.
Take `CN(C)CCOc1ccc(-c2cc3ccccc3c(=O)[nH]2)cc1` [REF-5, reference compound]: the pIC50 against TNKS1 was 7.77; in experiment [1] (read-out: Wnt IC50), less than 5.00.
For `Cc1cccc2c(=O)[nH]c(-c3ccc(CN4CCNCC4C)cc3)cc12` (single isomer, unassigned) [IQ-051-3], the pIC50 at TNKS1 is more than 7.30. For the same molecule, in the experiment with DLD1 cells, the “Clonogenic SF50 (DLD1)” value is less than 2 µM.
Take `O=C(C1CC1)N1CCN(c2ncc(-c3cc4c(O)cccc4c(=O)[nH]3)cn2)CC1` [REF-6, reference compound]: the negative-log IC50 (pIC50) is 7.62 against TNKS1 and 6.21 in experiment [1] (read-out: Wnt IC50).
For the molecule `CN(C)C1CCN(C(=O)c2ccc(-c3cc4c(Cl)cccc4c(=O)[nH]3)cc2)CC1` [IQ-103], the pIC50 against TNKS1 was more than 6.30; in experiment [1] (setting [2]), more than 5.30.
On TNKS1, `Cc1cccc2c(=O)[nH]c(-c3cnc(N4CCNCC4)c(F)c3)cc12` [IQ-023] gave a pIC50 of more than 7.30. In addition, the “Clonogenic SF50 (DLD1)” value in the experiment on DLD1 cells is less than 2 µM.
The matching figures for `Cc1cccc2c(=O)[nH]c(-c3ccc(S(=O)(=O)N4CCN(C)CC4)cc3)cc12` [IQ-121]: more than 7.30 and less than 2 µM.
The like results for `Cc1cccc2c(=O)[nH]c(-c3ccc(CN4CCN(C)CC4)nc3)cc12.O=CO` [IQ-057] were, in that order, more than 7.30 and less than 2 µM.
As for `CN(C)Cc1ccc(-c2cc3ccccc3c(=O)[nH]2)cc1` [REF-4, reference compound], the pIC50 in experiment [1] (read-out: Wnt IC50) is less than 5.00.
In turn, `Cc1cccc2c(=O)[nH]c(-c3ccc(CN4CCNC(C)C4)cc3)cc12` (single isomer, unassigned) [IQ-084-1] had a pIC50 against TNKS1 of more than 7.30. Moreover, in the experiment on DLD1 cells, the “Clonogenic SF50 (DLD1)” value is less than 2 µM.
As for `Cc1cccc2c(=O)[nH]c(-c3ccc(CN4CCC5(CCNC5)C4)nc3)cc12` (centres unmarked) [IQ-160], the pIC50 was more than 7.30 at TNKS1 and more than 5.30 in experiment [1] (setting [2]).
At TNKS1, `Cc1cccc2c(=O)[nH]c(-c3ccc(CN4CCNC(C)C4)cc3)cc12` (single isomer, unassigned) [IQ-084-2] had a pIC50 of more than 7.30. Further, the “Clonogenic SF50 (DLD1)” value in the experiment on DLD1 cells was less than 2 µM.
For `CN(C)CCOc1ccc(-c2cc3c(Br)cccc3c(=O)[nH]2)cc1` [IQ-132], the negative-log IC50 (pIC50) against TNKS1 is more than 6.30; in experiment [1] (setting [2]) it was more than 5.30.
In the case of `CN1CCN(c2ccc(-c3cc4c(Cl)cccc4c(=O)[nH]3)cn2)CC1` [IQ-002], the pIC50 was 7.41 at TNKS1 and 6.75 in experiment [1] (read-out: Wnt IC50).
Take `Cc1cc(F)cc2c(=O)[nH]c(-c3ccc(C(C)C(=O)N4CC(O)C4)cc3)cc12` (centres unmarked) [IQ-216]: the pIC50 was more than 7.30 against TNKS1 and more than 5.30 in experiment [1] (setting [2]).
With `CN(C)Cc1ccc(-c2cc3c(F)cccc3c(=O)[nH]2)cc1` [IQ-032], the pIC50 in experiment [1] (setting [2]) is more than 5.30.
For `O=c1[nH]c(-c2ccc(OCCN3CCCC3)cc2)cc2c(Cl)cccc12` [IQ-135], the negative logarithm of the IC50 (pIC50) against TNKS1 is more than 6.30; in experiment [1] (setting [2]), more than 5.30.
Regarding `Cc1cccc2c(=O)[nH]c(-c3ccc(C(=O)N4CCN(CC5CC5)CC4)cn3)cc12` [IQ-223, 3-[5-(4-Cyclopropylmethyl-piperazine-1-carbonyl)-pyridin-2-yl]-5-methyl-2H-isoquinolin-1-one], the figures for the pIC50 (against TNKS1; in experiment [1] (read-out: Wnt IC50); in experiment [1] (setting [2])) were 7.12, 5.87 and more than 5.30, respectively.
On to `CCc1cccc2c(=O)[nH]c(-c3ccc(CN4CCN(C(=O)OC(C)(C)C)CC4)cc3)cc12` [IQ-151, 4-[4-(5-Ethyl-1-oxo-1,2-dihydro-isoquinolin-3-yl)-benzyl]-piperazine-1-carboxylic acid tert-butyl ester], for which, in experiment [1] (setting [2]), the pIC50 was more than 5.30.
`CN1CCN(c2ccc(-c3cc4ccccc4c(=O)[nH]3)cn2)CC1` [REF-3, reference compound]: the pIC50 was 7.62 on TNKS1 and 6.13 in experiment [1] (read-out: Wnt IC50).
Take `Cc1cccc2c(=O)[nH]c(-c3ccc(C(=O)N4CCN(CC5CC5)CC4)cc3F)cc12` [IQ-165]: the pIC50 at TNKS1 was more than 6.30; in experiment [1] (setting [2]), more than 5.30.
As to `O=c1[nH]c(-c2cnc(N3CCNCC3)c(F)c2)cc2c(Cl)cccc12` [IQ-024], the pIC50 was more than 6.30 against TNKS1 and more than 5.30 in experiment [1] (setting [2]).
Consider `Cc1cccc2c(=O)[nH]c(-c3cnc(C(=O)N4CCN(C)CC4)nc3)cc12` [IQ-224], for which the figures for the pIC50 (against TNKS1; in experiment [1] (setting [2])) were more than 7.30 and more than 5.30, respectively.
Consider `CCc1cccc2c(=O)[nH]c(-c3ccc(CN4CCNCC4)cc3)cc12` [IQ-081], for which the negative-log IC50 (pIC50) is more than 7.30 at TNKS1 and more than 5.30 in experiment [1] (setting [2]).
`Cc1cccc2c(=O)[nH]c(-c3cnc(N4CCN(C)CC4)nc3)cc12` [IQ-025, 5-Methyl-3-[2-(4-methyl-piperazin-1-yl)-pyrimidin-5-yl]-2H-isoquinolin-1-one]: the pIC50 on TNKS1 was 7.77; in experiment [1] (read-out: Wnt IC50), 7.21.
For the molecule `CN1CCN(Cc2ccc(-c3cc4c(C5CC5)cccc4c(=O)[nH]3)cc2)CC1` [IQ-046], the pIC50 against TNKS1 was more than 6.30; in experiment [1] (setting [2]) it was more than 5.30.
The matching figures for `Cc1cccc2c(=O)[nH]c(-c3ccc(C(=O)N4CCN(C)CC4)cc3F)cc12` [IQ-164]: more than 6.30 and more than 5.30.
With `Cc1cccc2c(=O)[nH]c(-c3cnc(N4CCN(C(=O)C5CC5)CC4)nc3)cc12` [IQ-157, 3-[2-(4-Cyclopropanecarbonyl-piperazin-1-yl)-pyrimidin-5-yl]-5-methyl-2H-isoquinolin-1-one], the negative logarithm of the IC50 (pIC50) against TNKS1 was 7.29; in experiment [1] (read-out: Wnt IC50) it was 7.39.
Turning to `CN(C)CCOc1ccc(-c2cc3c(C#CCO)cccc3c(=O)[nH]2)cc1` [IQ-232], the results for the negative-log IC50 (pIC50) (on TNKS1; in experiment [1] (setting [2])) were more than 6.30 and more than 5.30, respectively.
The like results for `CN(C)Cc1ccc(-c2cc3c(Br)cccc3c(=O)[nH]2)cc1` [IQ-033] were, in that order, more than 7.30 and more than 5.30.
Regarding `CN1CCN(C(=O)c2ccc(-c3cc4c(O)cccc4c(=O)[nH]3)cn2)CC1` [REF-7, reference compound], the results for the pIC50 (against TNKS1; in experiment [1] (read-out: Wnt IC50)) were 7.38 and less than 5.00, respectively.
`Cc1ccc(F)c2c(=O)[nH]c(-c3cnc(C(=O)N4CCN(C)CC4)nc3)cc12` [IQ-225]: the negative-log IC50 (pIC50) was more than 6.30 on TNKS1 and more than 5.30 in experiment [1] (setting [2]).
Turning to `Cc1ccc(F)c2c(=O)[nH]c(-c3ccc(C(=O)N4CCN(C)CC4)nc3)cc12` [IQ-221], the pIC50 was more than 6.30 at TNKS1 and more than 5.30 in experiment [1] (setting [2]).
For the molecule `Cc1cc(F)cc2c(=O)[nH]c(-c3ccc(C(=O)N4CCN(C)CC4)nc3)cc12` [IQ-222], the negative logarithm of the IC50 (pIC50) is 7.80 against TNKS1 and 6.76 in experiment [1] (read-out: Wnt IC50).
The like results for `CN1CCN(Cc2ccc(-c3cc4ccc(F)cc4c(=O)[nH]3)cc2)CC1` [REF-2, reference compound] were, in that order, 7.32 and 6.00.
On to `CN(C)CCOc1ccc(-c2cc3c(Cl)cccc3c(=O)[nH]2)cc1` [IQ-128], for which the figures for the pIC50 (against TNKS1; in experiment [1] (setting [2])) were more than 6.30 and more than 5.30, respectively.
As for `Cc1cccc2c(=O)[nH]c(-c3ccc(C(=O)N(C)CC4CCNCC4)cc3)cc12` [IQ-093, N-Methyl-4-(5-methyl-1-oxo-1,2-dihydro-isoquinolin-3-yl)-N-piperidin-4-ylmethyl-benzamide], the pIC50 against TNKS1 is more than 7.70; in experiment [1] (setting [2]), more than 5.30.
The like results for `Cc1cccc2c(=O)[nH]c(-c3ccc(C(=O)N4CCOCC4)cc3F)cc12` [IQ-163] were, in that order, more than 6.30 and more than 5.30.
The like results for `O=c1[nH]c(-c2ccc(CN3CCNCC3)cc2)cc2c(Br)cccc12` [IQ-150] were, in that order, more than 6.30 and more than 5.30.
The matching figures for `Cc1cccc2c(=O)[nH]c(-c3ccc(C(C)(C)C(=O)N4CC(O)C4)cc3)cc12` [IQ-217]: more than 7.30 and more than 5.30.
With `CN(CC1CCNCC1)C(=O)c1ccc(-c2cc3c(Cl)cccc3c(=O)[nH]2)cc1` [IQ-094], the pIC50 at TNKS1 is more than 7.30; in experiment [1] (setting [2]), more than 5.30.
The like results for `O=c1[nH]c(-c2ccc(CN3CCNCC3)cc2)cc2c(F)cccc12` [IQ-070] were, in that order, more than 7.30 and more than 5.30.
Regarding `Cc1cccc2c(=O)[nH]c(-c3ccc(C(=O)N4CCN(C)CC4)nc3)cc12` [IQ-220], the negative-log IC50 (pIC50) on TNKS1 is 7.59; in experiment [1] (read-out: Wnt IC50), 6.56.
As to `O=c1[nH]c(-c2ccc(S(=O)(=O)N3CCNCC3)cc2)cc2c(Cl)cccc12` [IQ-124], the negative logarithm of the IC50 (pIC50) against TNKS1 is more than 7.30; in experiment [1] (setting [2]) it was more than 5.30.
Molecule `Cc1cccc2c(=O)[nH]c(-c3ccc(CCN4CCCC4)cc3)cc12` [IQ-041] gave a pIC50 against TNKS1 of more than 6.30.
Turning to `C#Cc1cccc2c(=O)[nH]c(-c3ccc(CN4CCNCC4)cc3)cc12` [IQ-230, 5-Ethynyl-3-(4-piperazin-1-ylmethylphenyl)-2H-isoquinolin-1-one], the negative logarithm of the IC50 (pIC50) was more than 6.30 against TNKS1 and more than 5.30 in experiment [1] (setting [2]).

Source of the values: patent US9193689B2, “3-aryl-5-substituted-isoquinolin-1-one compounds and their therapeutic use” (INSTITUTE OF CANCER RESEARCH: ROYAL CANCER HOSPITAL (THE), priority 2012, dated 2015).
